Reference: US20020061902A1, “Treatment method” (SCHERING CORPORATION, priority 2000, published 2002)

Assays:
[1] = tested on: rhinitis due to pollen allergy; conditions: given over a two week period; patients with rhinitis due to pollen allergy; cited from earlier work
[2] = tested on: eosinophils / human umbilical endothelial cells (HUVECs); experiment: TNFα-induced adhesion of 51Cr-labeled eosinophils to HUVECs; type: cell-based; conditions: 10 μM desloratadine; TNFA; P<0.02
Excerpt: (§1) Eosinophils were isolated and purified (>99% pure and >98% viable) from the blood of patients with allergic rhinitis or allergic asthma; a 2-week washout preceded blood collection.

[3] = stability of free base versus acid addition salt; type: physicochemical; conditions: free base vs acid addition salt
[4] = tested on: eosinophils; experiment: PAF-induced eosinophil chemotaxis (blind well-chamber technique); type: cell-based, human; conditions: 10 μM desloratadine; 1 μM PAF; eosinophils from patients with allergic rhinitis or allergic asthma; P<0.02
Excerpt: as §1

| SMILES | ICAM-1 expression on nasal epithelial cells [1] | eosinophil counts [1] | rhinitis symptoms [1] | maximum attenuation of TNFα-induced eosinophil adhesion to HUVECs [2] | stability as the free base compared with an acid addition salt [3] | maximum attenuation of PAF-induced eosinophil chemotaxis [4] |
| --- | --- | --- | --- | --- | --- | --- |
| CCOC(=O)N1CCC(=C2c3ccc(Cl)cc3CCc3cccnc32)CC1 [loratadine] | reduced | reduced | reduced |  |  |  |
| Clc1ccc2c(c1)CCc1cccnc1C2=C1CCNCC1 [Desloratadine, desloratadine] |  |  |  | 27%±5% | more stable as the free base | 36%±8% |
| O=C(O)COCCN1CCN(C(c2ccccc2)c2ccc(Cl)cc2)CC1 (stereo not drawn) [cetirizine] | reduced | reduced | reduced |  |  |  |
